Data published in patent publication US10463709B2, “Short synthetic peptide for treating diseases and/or conditions related to angiogenesis” (MacKay Memorial Hospital, priority 2015, dated 2019).
“Also recorded” adds a separate entry of the source. Square brackets hold non-standard residues; d marks the D form. Ends that are not written are not given here.

How the values were obtained:
HUVECs [1] = assay: VEGF-induced HUVEC proliferation assay; format: cell-based; conditions: VEGF (10 ng/mL) + 25 μM peptide; vs untreated HUVECs
Experimental: HUVECs (1×10^5 cells per well of 6-well plate) were grown in Medium 200 with Low Serum Growth Supplement (LSGS Kit, supplement contains 1.9% FBS, 3 ng/ml bFGF, 10 μg/ml heparin, 1 μg/ml hydrocortisone, and 10 ng/ml EGF). Culture plates were coated with 2% gelatin. Cells (passages 4-8) were cultured at 37° C. in a humidified atmosphere of 5% CO2. […]
HUVECs (1×10^5 cells per well of 6-well plate) in Medium 200 supplemented with LSGS Kit were allowed to grow onto 6-well plates coated with 2% gelatin for 24 hours at 37° C. in 5% CO2. The culture medium was then replaced with serum free Medium 200 overnight. […] Then, cells were harvested by trypsin-EDTA and counted using a hemocytometer.

[2] = test system: rat model of laser-induced wet AMD; assay: Laser-induced wet AMD, rat model; format: in vivo; conditions: fluorescein angiography day 14; vs PBS vehicle
Description: Further, the effect of 7-mer or 7-mer DD on rat model of laser-induced wet AMD was also investigated. Fluorescein angiography images were obtained on day 14 after laser burn, and the images were subsequently scored. Results are depicted in FIG. 14.

B16-F10 melanoma cells = assay: Experimental pulmonary metastasis in mice; format: in vivo, C57BL/6 mice
Experimental: 2×10^5 B16-F10 cells were suspended in 100 μl PBS and checked for viability using trypan blue staining (>95%). The B16-F10 cells were then injected into the tail vein of the 6-week-old female C57BL/6 mice; while vehicle (DMSO), the present synthetic peptide or the control peptide (10 mg/kg) were administered by intraperitoneal injections every 2 days after the B16-F10 cell injection. Five mice were used for each group. On day 8 after inoculation of cells, the lungs were removed, and the number of visible colonies on the surface of the lungs were counted using a dissecting microscope.
Metastasis is the foremost cause of death from cancer. In this example, to investigate the efficacy of the present synthetic peptide on the metastasis of cancer cells, B16-F10 cells were injected into the tail vein of a mouse, the animal was then treated with the present synthetic peptide (7-mer or 7-mer DD, 10 mg/Kg) by intraperitoneal injections every 2 days. Upon completion of the experiment, the lungs were then removed and the tumor colonies visible to the eyes were then counted. Results are depicted in FIG. 10.

rat aortic ring = assay: Rat aortic ring assay (ex vivo microvessel sprouting); set-up: species or system Sprague Dawley rats; conditions: beta-FGF induced; peptide 50 μM
Experimental: Thoracic aortas were removed from euthanized 10-week-old male Sprague Dawley rats, and gently stripped off periaortic fibroadipose tissue. Aortas were sectioned to about 2-mm length rings, which were embedded in Matrigel. To induce angiogenesis, human recombinant bFGF (50 ng/ml) or bFGF plus the peptide (50 μM) was added in Matrigel. Gel (200 μl) containing an aortic ring was polymerized in 12-well plates (37° C. for 30 min) and then incubated with 1 ml of Medium 200 supplemented with 100 units/ml penicillin, and […] streptomycin and 2% FBS at 37 ° C. The cultures were propagated at 37 ° C. in a humidified incubator for up to 7 days. Sprouts were recorded using an inverted microscope platform (Leica DM16000B) with bright-field optics. Each ring was scored by three independent observers on a scale 0-4 depending on the degree of sprouting vessel being observed (0=no sprouting, 4=profuse sprouting). The experiment was repeated in triplicates.

HUVECs [3] = assay: Endothelial cell capillary-like tube formation assay; format: cell-based; conditions: VEGF (10 ng/mL) + 25 μM peptide; vs untreated HUVECs
Experimental: To examine the effect of the present synthetic peptide on in vitro angiogenesis, growth factor-reduced matrigel was pipetted into pre-chilled 24-well plates (150 μl matrigel per well) and polymerized for 45 min at 37° C. […] In this experiment, images were captured using a Cannon camera on Zeiss inverted microscope with magnification ×40 and tube length was quantified using Image analysis software (Image-Pro Plus). The control peptide as used in the present invention has the sequence of DLYRVR (SEQ ID NO: 10).

RPMI8226 cells = assay: MTT assay, VEGF-induced proliferation of RPMI8226 cells; format: cell-based
Experimental: The multiple myeloma line RPMI8226 was cultivated in complex medium (RPMI1640) supplemented with 10% (vol/vol) heat-inactivated fetal calf serum (Invitrogen), 50 μg/mL penicillin, 50 μg/mL streptomycin, and 2 mM L-glutamine at 37° C. in a 5% CO2 atmosphere. RPMI8226 cells were cultured in serum-free RPMI1640 medium for 24 hrs, and then cells were seeded in 48-well culture plates (3×10^5 cells/well) and continued to culture in 0.5 ml fresh serum-free RPMI1640 medium containing 25 μM peptide for another 24 hrs. The cell viability was determined by the MTT assay. Briefly, 50 μL of MTT stock solution (50 μL) (5 mg MTT dissolved in 1 ml of sterile PBS) was added to each culture well. In addition, 50 μL of the MTT stock solution was added in 500 μL of medium as the negative control. The culture plate was incubated at 37° C. for 4 hours. Aliquots (450 μl) from each sample were taken to a new well of 48-well culture plate, adding 100 μL DMSO, mixing thoroughly using the pipette and reacted at 37° C. for 20 min and read absorbance at 570 nm. These synthesized peptides were then subject to MTT assay, in which vascular endothelial growth factor (VEGF) was used as a stimulant to induce cell proliferation. Results are depicted in FIGS. 1 to 4.

[4] = test system: STZ-induced diabetic mice; assay: Vascular abnormalities in the retina of diabetic mice; format: in vivo
Experimental: Diabetic mice were generated by a single intraperitoneal injection of streptozotocin (STZ) (150 mg/kg body weight). STZ was freshly prepared in 0.1 M citrate buffer (pH 4.5). After injection, mice were supplied with 10% sucrose overnight to prevent sudden hypoglycemic shock. After 1 week, mice with non-fasting blood glucose levels >500 mg/dl were defined as diabetic and used for the experiments. DMSO Vehicle or the present synthetic peptide (10 mg/kg; n≥3 per peptide) were administered by intraperitoneal injections twice a day. After treatment for 24 h, mice were intraperitoneal injected with 100 mg/kg of BSA-FITC for further 30 min.
To determine vascular lesions (hemorrhaging areas) in retina, the animals were euthanized by CO2 inhalation, and the eyes were enucleated and fixed by 2% paraformaldehyde for 2 hr and flat-mounted onto glass slides to obtain optical sections by an epifluorescence microscopy. Vascular lesions in the retina was scored in all four retinal quadrants of flat mounts by using a 20× objective. Six microscopic fields were sampled in each quadrant in both the central and peripheral retina, and data were presented as the average number of lesions/retina.
Vascular FITC-BSA leakage was determined by a fluorescence spectrofluorometer based on standard curves of FITC-BSA at excitation and emission wavelengths of 488 and 535 nm, respectively, and then normalized to a non-injected control retina. For this analysis, retinas were dissected from treated and untreated diabetic mice after BSA-FITC injections, and each was solubilized in 300 μL ice-cold PBS.
Diabetic retinopathy is characterized by blood-retinal barrier (BRB) breakdown and neurotoxicity. To evaluate the possible beneficial effect of the present synthetic peptides on diabetic retinopathy, STZ-induced diabetic mice were intraperitoneally injected with 7-mer peptide, DMSO vehicle or the control peptide (SEQ ID NO: 22). The retinal vascular abnormality was then monitored by detecting the extravasation of BSA-fluorescein. Results are depicted in FIG. 11.

HUVECs [5] = assay: Apoptosis assay (annexin V-FITC); format: cell-based; conditions: HUVECs
Experimental: The percentage of apoptotic HUVEC cells was assayed using TACS annexin V-FITC kit. The percentage of annexin V-positive cells was determined using in situ staining according to the manufacturer's instruction. The cell number was determined by counterstaining with Hoechst 33342. The nuclei in ten randomly selected fields of the three different chambers (˜7200 cells) were counted. Specimens were examined and photographed on a Zeiss epifluorescence microscope (×100, 10 fields/sample). Pictures were recorded on Zeiss software.

[6] = test system: human uterine sarcoma cells (MES-SA/Dx5); assay: Tumorigenicity assay, xenografted human uterine sarcoma; format: in vivo, nude mice; conditions: 10 mg/kg intraperitoneal every 2 days
Experimental: MES-SA/Dx5 cells (5×10^6 cells in 0.1 ml) were implanted by subcutaneous injections in the right flank region of female nude mice (n=24, each animal weighted about 20 g before the assay began). The experiments were approved by the Mackay Memorial Hospital Review Board for animal investigation. Treatment was initiated in animals when the tumor volume was above 80 mm^3. Vehicle DMSO, the present synthetic peptide or the control peptide (10 mg/kg) was administered by intraperitoneal injections every 2 days. Tumor progression was monitored for 10 days; size of the tumor was measured every 3 to 5 days with a caliper and the volume was calculated using the following formula: ½×length×width^2.
To this purpose, human uterine sarcoma cells (MES-SA/Dx5) were implanted in nude mice to induce tumor formation, and when the volume of each tumor reached 80 mm^3, animals were then treated with vehicle alone, or the 7-mer peptide at the dose of 10 mg/kg, every 2 days for 10 days. Results are depicted in FIG. 9.

Substance: NH2-(D-Asp)-Leu-Tyr-Arg-Val-Arg-Ser-COOH (H-[dD]LYRVRS-OH) [7-mer DD]
- Cell number (Fold) (HUVECs [1]): 0.90 ± 0.048 Fold
- lesions caused by the laser burn [2]: significantly ameliorated
- effect on number of colonies on the surface of the lung / in vivo metastasis (B16-F10 melanoma cells; 10 mg/Kg intraperitoneal every 2 days): capable of reducing the number of colonies; also recorded: may suppress in vivo metastasis
- No. lung colonies (B16-F10 melanoma cells; 10 mg/Kg intraperitoneal every 2 days, day 8, n = 5): 40 ± 15.7
- Inhibition (%) (B16-F10 melanoma cells; lung colonies vs vehicle, 10 mg/Kg): 82.3%
- level of sprouting microvessels around the aortic ring (rat aortic ring): inhibited
- Tube length (Fold) (HUVECs [3]): 1.33 ± 0.25 Fold
- dose dependence of inhibitory action on VEGF-induced cell proliferation (RPMI8226 cells; 1 to 25 μM, RPMI8226 cells): dose dependent manner
- extravasation of FITC-BSA [4]: may significantly prevent
- Fluorescence Intensity (Fold) ([4]; leaked FITC-BSA in entire retina, vs vehicle): 0.38 ± 0.11 Fold

Substance: NH2-Asp-Leu-Tyr-Arg-Val-Arg-COOH (DLYRVR; not fully specified (N-terminus, C-terminus); printed as NH2-Asp-Leu-Tyr-Arg-Val-Arg-COOH) [Control Peptide, reference compound]
- biological activity of the analogue relative to the 7-mer (summary statement of the description) (RPMI8226 cells; summary of Example 1 findings): does not possess any biological function
- hemorrhage in the retinal parenchyma ([4]; intraperitoneal): several hemorrhaging areas
- induction of cell apoptosis (HUVECs [5]): did not result in cell apoptosis
- sizes of tumors [6]: remained relatively unchanged
